This is an account of results in PMC5890335 (Journal of immunology (Baltimore, Md. : 1950), 2018).

The target in one test is H2-D^d MHC-I molecule (Mus musculus, UniProt P01900). As to the kind of experiment: Peptide induction of surface H2-D^d expression on RMAS-D^d cells. In kind it is cell-based. The note with it: fluorescence index, ANOVA, compared with s.p.VV10, Fig 4c.
For test [1], the target named is H2-D^d MHC-I molecule on RMAS-D^d cells (mouse). The test can be described thus: flow cytometry on cells.
H2-D^d MHC-I molecule on RMAS-D^d cells (mouse), sequence (P01900 25-365): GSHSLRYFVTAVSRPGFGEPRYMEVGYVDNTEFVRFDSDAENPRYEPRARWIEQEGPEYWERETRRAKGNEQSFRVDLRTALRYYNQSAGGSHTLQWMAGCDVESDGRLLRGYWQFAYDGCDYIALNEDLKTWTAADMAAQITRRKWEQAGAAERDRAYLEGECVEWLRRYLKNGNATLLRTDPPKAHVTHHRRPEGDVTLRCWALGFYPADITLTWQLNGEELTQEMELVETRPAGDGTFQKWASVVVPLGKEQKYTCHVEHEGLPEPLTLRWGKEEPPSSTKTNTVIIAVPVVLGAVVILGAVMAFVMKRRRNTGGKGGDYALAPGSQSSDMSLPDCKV

H2-D^d MHC-I molecule, sequence (P01900 whole entry, looked up): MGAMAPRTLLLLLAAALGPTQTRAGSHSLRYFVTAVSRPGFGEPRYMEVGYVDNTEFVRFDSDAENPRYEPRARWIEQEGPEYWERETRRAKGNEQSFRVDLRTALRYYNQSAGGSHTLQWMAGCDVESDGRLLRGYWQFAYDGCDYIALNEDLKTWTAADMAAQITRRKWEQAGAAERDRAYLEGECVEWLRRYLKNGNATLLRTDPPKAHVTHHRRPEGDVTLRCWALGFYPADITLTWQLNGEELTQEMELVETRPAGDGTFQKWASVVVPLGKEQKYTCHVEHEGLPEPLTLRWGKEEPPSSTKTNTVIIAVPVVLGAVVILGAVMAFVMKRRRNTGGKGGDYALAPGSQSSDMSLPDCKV

With IGPGRAFYT [s.p.T9], on H2-D^d MHC-I molecule, the “comparison of H2-D^d binding titration curves of the 9-mer peptides” value is reported as “do not differ from each other”.

For the molecule IGPGRAFYV [s.p.V9], the “comparison of H2-D^d binding titration curves of the 9-mer peptides” value at H2-D^d MHC-I molecule is “do not differ from each other”.

For the molecule “s.p.TT10 (…), minimal V3 epitope of HIV-1MN gp120, gp120 314-323 (peptide)”, the FI0.5 (peptide concentration giving a 50% increase in H2-D^d surface expression) in test [1] amounted to 1 µg/mL.

As for IGPGRAFYVV [s.p.VV10 (…)], the FI0.5 (peptide concentration giving a 50% increase in H2-D^d surface expression) in test [1] is 1 µg/mL.
